Experimental data taken from ChEMBL document CHEMBL1124620, “New 1,4-dihydropyridine derivatives combining calcium antagonism and alpha-adrenolytic properties” (J Med Chem, 1989).

Columns and labels:
Sus scrofa = organism: Sus scrofa; assay: Calcium antagonistic activity was evaluated from the inhibition of CaCl2-induced contraction of depolarized pig coronary artery; assay type: functional
[1] = target: T1, Adrenergic receptor alpha-2 (Homo sapiens, UniProt P08913+P18825+P18089); assay: In vitro ability to inhibit norepinephrine binding to alpha-2 adrenergic receptor of guinea pig vas deferens; assay type: tissue-based, Cavia porcellus; details: target entry is the homologue from another species
T1 sequence (P08913 whole entry): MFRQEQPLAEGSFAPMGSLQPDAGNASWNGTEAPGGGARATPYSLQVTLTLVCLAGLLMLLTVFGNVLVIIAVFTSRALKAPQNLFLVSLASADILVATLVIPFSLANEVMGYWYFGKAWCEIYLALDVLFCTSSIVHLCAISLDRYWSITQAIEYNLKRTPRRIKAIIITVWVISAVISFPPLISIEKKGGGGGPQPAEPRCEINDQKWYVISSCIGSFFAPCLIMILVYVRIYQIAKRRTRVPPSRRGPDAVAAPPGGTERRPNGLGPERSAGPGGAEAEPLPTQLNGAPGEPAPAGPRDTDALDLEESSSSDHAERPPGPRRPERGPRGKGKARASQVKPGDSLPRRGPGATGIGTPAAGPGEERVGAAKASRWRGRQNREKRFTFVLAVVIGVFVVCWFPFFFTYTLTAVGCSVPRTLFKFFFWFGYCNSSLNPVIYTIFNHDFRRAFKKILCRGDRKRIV
T1 sequence (P18825 whole entry): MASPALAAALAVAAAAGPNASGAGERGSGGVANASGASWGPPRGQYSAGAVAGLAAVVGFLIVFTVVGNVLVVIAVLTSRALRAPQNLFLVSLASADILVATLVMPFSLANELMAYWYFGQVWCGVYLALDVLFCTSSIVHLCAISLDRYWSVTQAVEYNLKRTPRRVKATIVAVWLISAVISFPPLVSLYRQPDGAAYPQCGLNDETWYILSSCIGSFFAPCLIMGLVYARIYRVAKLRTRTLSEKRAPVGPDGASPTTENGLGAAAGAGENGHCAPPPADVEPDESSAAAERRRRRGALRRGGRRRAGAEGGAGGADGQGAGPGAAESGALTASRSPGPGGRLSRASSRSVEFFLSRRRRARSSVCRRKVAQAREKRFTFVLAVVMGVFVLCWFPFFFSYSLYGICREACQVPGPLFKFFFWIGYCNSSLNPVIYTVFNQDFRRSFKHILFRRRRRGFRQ
T1 sequence (P18089 whole entry): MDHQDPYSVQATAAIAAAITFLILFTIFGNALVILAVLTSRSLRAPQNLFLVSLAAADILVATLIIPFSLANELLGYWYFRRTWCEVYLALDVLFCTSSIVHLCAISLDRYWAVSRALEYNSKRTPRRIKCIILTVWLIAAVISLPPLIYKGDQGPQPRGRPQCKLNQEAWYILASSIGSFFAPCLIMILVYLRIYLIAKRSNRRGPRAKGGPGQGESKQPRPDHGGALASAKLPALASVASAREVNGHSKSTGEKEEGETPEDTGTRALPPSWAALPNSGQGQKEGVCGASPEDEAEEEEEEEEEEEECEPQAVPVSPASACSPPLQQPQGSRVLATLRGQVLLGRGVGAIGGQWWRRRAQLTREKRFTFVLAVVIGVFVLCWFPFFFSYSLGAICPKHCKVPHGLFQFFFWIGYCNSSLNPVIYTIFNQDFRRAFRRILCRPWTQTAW

[2] = target: T2, Adrenergic receptor alpha-2 (Rattus norvegicus, UniProt P22086+P19328+P22909); assay: Ability to inhibit [3H]yohimbine binding to alpha-2 adrenergic receptor of rat cerebral cortex preparation; assay type: tissue-based
T2 sequence (P22086 whole entry): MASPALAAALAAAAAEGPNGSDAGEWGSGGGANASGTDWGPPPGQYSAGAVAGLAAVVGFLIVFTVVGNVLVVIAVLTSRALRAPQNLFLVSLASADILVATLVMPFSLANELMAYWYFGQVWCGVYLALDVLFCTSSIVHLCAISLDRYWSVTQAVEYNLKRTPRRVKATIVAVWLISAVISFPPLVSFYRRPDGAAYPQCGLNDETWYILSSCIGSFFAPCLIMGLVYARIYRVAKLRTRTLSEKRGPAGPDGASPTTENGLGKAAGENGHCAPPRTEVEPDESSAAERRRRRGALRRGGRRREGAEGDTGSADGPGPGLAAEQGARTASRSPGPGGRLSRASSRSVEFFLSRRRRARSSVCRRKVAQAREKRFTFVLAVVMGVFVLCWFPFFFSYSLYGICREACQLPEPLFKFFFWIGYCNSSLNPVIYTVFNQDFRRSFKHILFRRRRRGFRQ
T2 sequence (P19328 whole entry): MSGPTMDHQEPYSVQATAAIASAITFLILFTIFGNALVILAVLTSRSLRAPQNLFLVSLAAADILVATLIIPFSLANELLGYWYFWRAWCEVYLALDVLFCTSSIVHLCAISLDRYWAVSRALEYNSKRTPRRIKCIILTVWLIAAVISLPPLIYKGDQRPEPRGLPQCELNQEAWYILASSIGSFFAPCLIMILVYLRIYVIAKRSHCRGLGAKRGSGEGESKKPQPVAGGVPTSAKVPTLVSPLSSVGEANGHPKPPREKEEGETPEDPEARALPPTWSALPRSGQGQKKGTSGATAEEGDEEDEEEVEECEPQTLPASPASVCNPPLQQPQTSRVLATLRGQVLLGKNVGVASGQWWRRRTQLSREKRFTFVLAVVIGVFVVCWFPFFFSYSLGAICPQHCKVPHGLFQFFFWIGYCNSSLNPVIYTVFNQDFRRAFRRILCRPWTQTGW
T2 sequence (P22909 whole entry): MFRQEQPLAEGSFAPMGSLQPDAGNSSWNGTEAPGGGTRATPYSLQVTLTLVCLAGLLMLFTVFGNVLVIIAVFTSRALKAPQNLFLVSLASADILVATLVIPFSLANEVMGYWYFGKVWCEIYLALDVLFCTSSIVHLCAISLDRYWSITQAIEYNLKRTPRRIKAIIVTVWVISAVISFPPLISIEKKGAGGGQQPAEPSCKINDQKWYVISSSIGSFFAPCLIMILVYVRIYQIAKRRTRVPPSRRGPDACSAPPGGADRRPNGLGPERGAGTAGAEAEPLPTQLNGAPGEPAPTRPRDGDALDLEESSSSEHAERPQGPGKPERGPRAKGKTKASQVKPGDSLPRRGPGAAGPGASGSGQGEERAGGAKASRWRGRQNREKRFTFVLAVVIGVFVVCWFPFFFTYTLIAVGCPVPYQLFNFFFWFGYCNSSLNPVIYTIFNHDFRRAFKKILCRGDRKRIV

| SMILES | IC50 (Sus scrofa; Sus scrofa, Coronary artery) | IC50 [1] | IC50 [2] | pA2 [1] | IC50 (Sus scrofa) |
| --- | --- | --- | --- | --- | --- |
| CO/C(O)=C1\C(C)=NC(C)=C(C(=O)OCCN2CCC(n3c(O)nc4ccccc43)CC2)C1c1cccc([N+](=O)[O-])c1 (stereo not given) | 1 µM | >> 1e-6 M | 1.6 µM | – | – |
| CO/C(O)=C1\C(C)=NC(C)=C(C(=O)OCCN(C)CC2COc3ccccc3O2)C1c1ccccc1[N+](=O)[O-] (stereo not given) | 0.004 µM | > 1e-06 M | 0.27 µM | – | – |
| CC1=NC(C)=C(C(=O)OC(C)CN(C)CC2COc3ccccc3O2)C(c2cccc([N+](=O)[O-])c2)/C1=C(\O)OC(C)C.Cl (stereo not given) | 0.15 µM | – | – | – | – |
| CO/C(O)=C1\C(C)=NC(C)=C(C(=O)OC(C)CN(C)CC2COc3ccccc3O2)C1c1cccc([N+](=O)[O-])c1.Cl (stereo not given) | 0.0038 µM | >> 0.00001 M | 0.47 µM | – | – |
| COC(=O)C1=C(C)NC(C)=C(C(=O)OCCN(C)C[C@H]2COc3ccccc3O2)[C@@H]1c1cccc([N+](=O)[O-])c1.Cl (stereo in doubt; 6b) | – | > 0.0001 M | 0.14 µM | – | 0.01 µM |

Further lines, results first:

| IC50 (Sus scrofa; Sus scrofa, Coronary artery) | IC50 [1] | IC50 [2] | pA2 [1] | IC50 (Sus scrofa) | SMILES |
| --- | --- | --- | --- | --- | --- |
| 0.013 µM | – | 0.48 µM | 6.7 | – | CO/C(O)=C1\C(C)=NC(C)=C(C(=O)OCCN(C)C(C)COc2ccccc2)C1c1cccc([N+](=O)[O-])c1.Cl (stereo not given) |
| > 10 µM | > 0.0001 M | 16 µM | – | – | CO/C(O)=C1\C(C)=NC(C)=C(C(=O)OCCN(C)C(c2ccccc2)C2CCCCC2)C1c1cccc([N+](=O)[O-])c1.Cl (stereo not given) |
| 0.0045 µM | > 1e-06 M | 0.48 µM | – | – | CO/C(O)=C1\C(C)=NC(C)=C(C(=O)OCCN(C)CC2COc3ccccc3O2)C1c1cccc([N+](=O)[O-])c1.Cl (stereo not given) |
| – | >> 1e-6 M | 4 µM | – | 0.0015 µM | COC(=O)C1=C(C)NC(C)=C(C(=O)OCCN(C)C[C@H]2COc3ccccc3O2)[C@@H]1c1cccc([N+](=O)[O-])c1.Cl (stereo in doubt; 6a) |
